Measurements: patent publication US10711007B2, “Selective inhibitors of protein arginine methyltransferase 5 (PRMT5)” (Prelude Therapeutics, Incorporated, priority 2018, dated 2020)
Counter-ions that a name gives are not always drawn.

Target: PRMT5/MEP50 complex (Homo sapiens (Human), UniProt O14744)
Assay: Biochemical assay: PRMT5/MEP50 methylation of histone H4 based AcH4-23, SPA readout
Settings: PRMT5/MEP50 2.5 nM, 300 nM AcH4-23, 1 μM 3H-SAM
Description: Biochemical Assay Protocol
Compounds were solubilized and 3-fold diluted in 100% DMSO. […] Standard reactions were performed in a total volume of 30 μl in assay buffer, with 300 nM histone H4 based AcH4-23 (Anaspec: AS-65002) as substrate. To this was added the PRMT5/MEP50 complex diluted to provide a final assay concentration of 2.5 nM and the compounds were allowed to preincubate for 20 minutes at 37° C. The reaction was initiated by adding S-[3H-methyl]-adenosyl-L-methionine (PerkinElmer: NET155001MC) to final concentration of 1 μM. Following a 30 minutes incubation at 37° C., the reaction was stopped by adding 25 μL of 8M Guanidine HCl. Prepare streptavidin YSI SPA beads (Perkinelmer: RPNQ0012) at 0.3 mg/mL in assay buffer. To each reaction, add 150 μL of SPA beads suspension, and incubated while shaking at room temperature for 30 minutes. The plate was centrifuged at 100×g for 30 second before reading in a scintillation counter. IC50 values were determined by fitting the data to the standard 4 parameters with Hill Slope using GraphPad Prism software.

Chain of PRMT5/MEP50 complex (O14744 whole entry): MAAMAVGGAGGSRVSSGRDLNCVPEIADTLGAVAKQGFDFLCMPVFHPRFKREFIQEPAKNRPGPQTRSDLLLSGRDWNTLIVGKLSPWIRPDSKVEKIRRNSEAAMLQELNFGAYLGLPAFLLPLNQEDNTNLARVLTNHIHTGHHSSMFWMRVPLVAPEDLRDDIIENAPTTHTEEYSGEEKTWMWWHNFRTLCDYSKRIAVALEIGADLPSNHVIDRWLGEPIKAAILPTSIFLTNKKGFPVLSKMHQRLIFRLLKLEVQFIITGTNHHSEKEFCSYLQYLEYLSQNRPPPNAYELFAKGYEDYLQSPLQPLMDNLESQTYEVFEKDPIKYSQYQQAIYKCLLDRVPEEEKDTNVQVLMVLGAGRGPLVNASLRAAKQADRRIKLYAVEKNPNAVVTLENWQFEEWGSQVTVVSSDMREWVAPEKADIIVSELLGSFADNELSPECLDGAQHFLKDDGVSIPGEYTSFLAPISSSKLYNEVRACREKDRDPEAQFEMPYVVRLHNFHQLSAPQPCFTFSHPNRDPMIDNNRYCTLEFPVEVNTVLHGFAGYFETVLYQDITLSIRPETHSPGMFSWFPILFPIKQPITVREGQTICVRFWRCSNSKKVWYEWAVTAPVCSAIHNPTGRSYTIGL
Chain of PRMT5/MEP50 complex (Q9BQA1 whole entry partner): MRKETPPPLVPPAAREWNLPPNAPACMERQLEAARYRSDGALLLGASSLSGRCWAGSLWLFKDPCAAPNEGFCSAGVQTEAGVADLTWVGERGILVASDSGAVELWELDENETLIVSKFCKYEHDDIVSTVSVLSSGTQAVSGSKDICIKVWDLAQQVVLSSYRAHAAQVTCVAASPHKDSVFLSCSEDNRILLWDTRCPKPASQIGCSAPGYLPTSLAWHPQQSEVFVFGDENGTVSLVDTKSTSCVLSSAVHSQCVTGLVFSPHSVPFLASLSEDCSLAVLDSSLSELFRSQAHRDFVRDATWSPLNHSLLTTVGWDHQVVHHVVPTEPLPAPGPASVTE

Row | SMILES | IC50 [nM]
1 | Nc1ncnc2c1ccn2[C@@H]1O[C@H]([C@@H]2OCC(F)(F)c3ccccc32)[C@@H](O)[C@H]1O [Example 78, (2R,3R,4S,5S)-2-(4-amino-7H-pyrrolo[2,3-d]pyrimidin-7-yl)-5-((R)-4,4-difluoroisochroman-1-yl)tetrahydrofuran-3,4-diol] | 6.7
2 | Nc1ncnc2c1ccn2[C@@H]1C[C@H]([C@H]2OC(=O)c3cc(Cl)ccc32)[C@@H](O)[C@H]1O [Example 3B, (R)-3-((1S,2R,3S,4R)-4-(4-amino-6H-7I4-pyrrolo[2,3-d]pyrimidin-7-yl)-2,3-dihydroxycyclopentyl)-6-chloroisobenzofuran-1(3H)-one, hydrochloride] | 1020
3 | Cc1ncnc2c1ccn2[C@@H]1O[C@H]([C@@H]2OCc3ccc(Cl)cc32)[C@@H](O)[C@H]1O [Example 15, (2S,3S,4R,5R)-2-((R)-6-chloro-1,3-dihydroisobenzofuran-1-yl)-5-(4-methyl-7H-pyrrolo[2,3-d]pyrimidin-7-yl)tetrahydrofuran-3,4-diol] | 1
4 | Nc1ncnc2c1ccn2[C@@H]1O[C@H]([C@H]2OCc3cc(Cl)ccc32)[C@@H](O)[C@H]1O [Example 1B, (2R,3R,4S,5S)-2-(4-amino-7H-pyrrolo[2,3-d]pyrimidin-7-yl)-5-((S)-5-chloro-1,3-dihydroisobenzofuran-1-yl)tetrahydrofuran-3,4-diol] | 270
5 | Nc1ncnc2c1ccn2[C@@H]1O[C@H]([C@@H]2OC(O)Cc3cc(Cl)ccc32)[C@@H](O)[C@H]1O (stereo partly drawn) [Example 43, (2R,3R,4S,5S)-2-(4-amino-7H-pyrrolo[2,3-d]pyrimidin-7-yl)-5-((1R)-6-chloro-3-hydroxyisochroman-1-yl)tetrahydrofuran-3,4-diol] | 19
6 | Nc1ncnc2c1ccn2[C@@H]1O[C@H]([C@H]2OCCc3cc(Cl)sc32)[C@@H](O)[C@H]1O [Example 91, (2R,3R,4S,5S)-2-(4-amino-7H-pyrrolo[2,3-d]pyrimidin-7-yl)-5-((R)-2-chloro-4,7-dihydro-5H-thieno[2,3-c]pyran-7-yl)tetrahydrofuran-3,4-diol] | 554
7 | Cc1cc2c(cc1Cl)CCO[C@H]2[C@H]1O[C@@H](n2ccc3c(C)ncnc32)[C@H](O)[C@@H]1O [Example 99, (2S,3S,4R,5R)-2-((R)-6-chloro-7-methylisochroman-1-yl)-5-(4-methyl-7H-pyrrolo[2,3-d]pyrimidin-7-yl)tetrahydrofuran-3,4-diol] | 39.6
8 | Cc1ncnc2c1ccn2[C@@H]1O[C@H]([C@@H]2OC[C@@H](F)c3cc(Cl)ccc32)[C@@H](O)[C@H]1O [Example 92, (2S,3S,4R,5R)-2-((1R,4S)-6-chloro-4-fluoroisochroman-1-yl)-5-(4-methyl-7H-pyrrolo[2,3-d]pyrimidin-7-yl)tetrahydrofuran-3,4-diol] | 20
9 | Nc1ncnc2c1ccn2[C@@H]1O[C@H]([C@@H]2OCCCc3cc(Cl)ccc32)[C@@H](O)[C@H]1O [Example 102, (2R,3R,4S,5S)-2-(4-amino-6H-7I4-pyrrolo[2,3-d]pyrimidin-7-yl)-5-((R)-7-chloro-1,3,4,5-tetrahydrobenzo[c]oxepin-1-yl)tetrahydrofuran-3,4-diol, hydrochloride] | 6280
10 | Nc1ncnc2c1ccn2[C@@H]1O[C@H]([C@@H]2OCOCc3cc(Cl)ccc32)[C@@H](O)[C@H]1O [Example 81, (2R,3R,4S,5S)-2-(4-amino-7H-pyrrolo[2,3-d]pyrimidin-7-yl)-5-((R)-7-chloro-1,5-dihydrobenzo[e][1,3]dioxepin-1-yl)tetrahydrofuran-3,4-diol] | 41.5
11 | Nc1ncnc2c1ccn2[C@@H]1C[C@H]([C@H]2OCc3cc(Cl)ccc32)[C@@H](O)[C@H]1O [Example 2A, (1R,2S,3R,5S)-3-(4-amino-7H-pyrrolo[2,3-d]pyrimidin-7-yl)-5-((R)-5-chloro-1,3-dihydroisobenzofuran-1-yl)cyclopentane-1,2-diol] | 680
12 | Nc1ncnc2c1ccn2[C@@H]1O[C@H]([C@@H]2OCCc3c2ccc(F)c3F)[C@@H](O)[C@H]1O [Example 77, (2R,3R,4S,5S)-2-(4-amino-7H-pyrrolo[2,3-d]pyrimidin-7-yl)-5-((R)-5,6-difluoroisochroman-1-yl)tetrahydrofuran-3,4-diol] | 2.82
13 | COC1Cc2cc(Cl)ccc2[C@H]([C@H]2O[C@@H](n3ccc4c(N)ncnc43)[C@H](O)[C@@H]2O)O1 (stereo partly drawn) [Example 42, (2R,3R,4S,5S)-2-(4-amino-7H-pyrrolo[2,3-d]pyrimidin-7-yl)-5-((1R)-6-chloro-3-methoxyisochroman-1-yl)tetrahydrofuran-3,4-diol] | 428
14 | Cc1ncnc2c1ccn2[C@@H]1O[C@H]([C@@H]2OCCCc3cc(Cl)ccc32)[C@@H](O)[C@H]1O [Example 101, (2S,3S,4R,5R)-2-((R)-7-chloro-1,3,4,5-tetrahydrobenzo[c]oxepin-1-yl)-5-(4-methyl-7H-pyrrolo[2,3-d]pyrimidin-7-yl)tetrahydrofuran-3,4-diol] | 1580

Continued by falling IC50, values first:

Row | IC50 [nM] | SMILES
15 | 1010 | Cc1ncnc2c1ccn2[C@@H]1O[C@H]([C@H]2OCCc3cc(Cl)ccc32)[C@@H](O)[C@H]1O [Example 80, (2S,3S,4R,5R)-2-((S)-6-chloroisochroman-1-yl)-5-(4-methyl-7H-pyrrolo[2,3-d]pyrimidin-7-yl)tetrahydrofuran-3,4-diol]
16 | 606 | COC1Cc2cc(Cl)ccc2[C@H]([C@H]2O[C@@H](n3ccc4c(C)ncnc43)[C@H](O)[C@@H]2O)O1 (stereo partly drawn) [Example 44, (2S,3S,4R,5R)-2-((1R)-6-chloro-3-methoxyisochroman-1-yl)-5-(4-methyl-7H-pyrrolo[2,3-d]pyrimidin-7-yl)tetrahydrofuran-3,4-diol]
17 | 585 | Nc1ncnc2c1ccn2[C@@H]1O[C@H]([C@@H]2OC(=O)Cc3cc(Cl)ccc32)[C@@H](O)[C@H]1O [Example 82, (R)-1-((2S,3S,4R,5R)-5-(4-amino-7H-pyrrolo[2,3-d]pyrimidin-7-yl)-3,4-dihydroxytetrahydrofuran-2-yl)-6-chloroisochroman-3-one]
18 | 81 | Cc1ncnc2c1ccn2[C@@H]1O[C@H]([C@@H]2OCC(F)(F)c3ccccc32)[C@@H](O)[C@H]1O [Example 76, (2S,3S,4R,5R)-2-((R)-4,4-difluoroisochroman-1-yl)-5-(4-methyl-7H-pyrrolo[2,3-d]pyrimidin-7-yl)tetrahydrofuran-3,4-diol]
19 | 59 | Cc1ncnc2c1ccn2[C@@H]1O[C@H]([C@@H]2OC(O)Cc3cc(Cl)ccc32)[C@@H](O)[C@H]1O (stereo partly drawn) [Example 50, (2S,3S,4R,5R)-2-((1R)-6-chloro-3-hydroxyisochroman-1-yl)-5-(4-methyl-7H-pyrrolo[2,3-d]pyrimidin-7-yl)tetrahydrofuran-3,4-diol]
20 | 14 | Nc1ncnc2c1ccn2[C@@H]1O[C@H]([C@@H]2OC[C@@H](F)c3cc(Cl)ccc32)[C@@H](O)[C@H]1O [Example 93, (2R,3R,4S,5S)-2-(4-aminopyrrolo[2,3-d]pyrimidin-7-yl)-5-[(1R,4S)-6-chloro-4-fluoro-isochroman-1-yl]tetrahydrofuran-3,4-diol]
21 | 8.4 | Cc1ncnc2c1ccn2[C@@H]1O[C@H]([C@@H]2OCCc3c2ccc(F)c3F)[C@@H](O)[C@H]1O [Example 79, (2S,3S,4R,5R)-2-((R)-5,6-difluoroisochroman-1-yl)-5-(4-methyl-7H-pyrrolo[2,3-d]pyrimidin-7-yl)tetrahydrofuran-3,4-diol]
22 | 5.6 | Cc1cc2c(cc1Cl)CCO[C@H]2[C@H]1O[C@@H](n2ccc3c(N)ncnc32)[C@H](O)[C@@H]1O [Example 100, (2R,3R,4S,5S)-2-(4-amino-7H-pyrrolo[2,3-d]pyrimidin-7-yl)-5-((R)-6-chloro-7-methylisochroman-1-yl)tetrahydrofuran-3,4-diol]
23 | 3.2 | Cc1ncnc2c1ccn2[C@@H]1O[C@H]([C@@H]2OC[C@H](F)c3cc(Cl)ccc32)[C@@H](O)[C@H]1O [Example 94, (2R,3R,4S,5S)-2-(4-methylpyrrolo[2,3-d]pyrimidin-7-yl)-5-[(1R,4R)-6-chloro-4-fluoro-isochroman-1-yl]tetrahydrofuran-3,4-diol]
